Assay results as given in PMC11772769, “Selective cargo and membrane recognition by SNX17 regulates its interaction with Retriever” (EMBO Reports, 2024).
Changes are numbered by the printed parent chain. Read-outs that look alike come from different tables or passages of the source. Where no end group is shown, it is not given here.

Assays:
MBP-SNX17H457A = target: T1, MBP-SNX17H457A (Homo sapiens, UniProt Q15036, H457A); assay: Fluorescence anisotropy binding of 5-FAM peptides to MBP-SNX17 H457A
T1 construct: M protein marker, R Retriever complex, FL full-length; His (N, cleaved yes); made in house; host or cells: Escherichia coli BL21(DE3)
T1 sequence (Q15036 1-470 H457A): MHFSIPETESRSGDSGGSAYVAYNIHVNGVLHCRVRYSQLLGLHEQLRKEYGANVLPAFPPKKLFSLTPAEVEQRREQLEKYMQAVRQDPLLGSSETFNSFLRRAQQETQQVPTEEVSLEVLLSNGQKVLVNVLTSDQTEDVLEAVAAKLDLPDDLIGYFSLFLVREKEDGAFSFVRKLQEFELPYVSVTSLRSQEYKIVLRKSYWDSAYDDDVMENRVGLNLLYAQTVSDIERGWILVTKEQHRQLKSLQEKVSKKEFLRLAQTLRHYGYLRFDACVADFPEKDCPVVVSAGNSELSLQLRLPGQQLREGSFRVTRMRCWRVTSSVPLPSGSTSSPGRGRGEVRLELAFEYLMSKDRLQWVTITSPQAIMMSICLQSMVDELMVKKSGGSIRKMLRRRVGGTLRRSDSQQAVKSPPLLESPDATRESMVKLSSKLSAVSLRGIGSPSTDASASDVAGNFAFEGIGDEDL
Method: (§1) Lyophilized peptides were resuspended in 100 mM Hepes pH 8.0 at 5 mg/ml and further diluted in the assay buffer (50 mM Hepes pH 7.5, 300 mM NaCl, and 1 mM DTT). […] The mixture was incubated at 25 °C for at least 30 min and then transferred to 96 Flat Black plates. Fluorescence anisotropy was measured at 25 °C using Spark 10M Plate Reader (Tecan) with a 485/20 excitation filter and a 535/35 emission filter. The dissociation constants were calculated in GraphPad Prism by nonlinear regression fitting of the experimental data to a one-site total binding model. The final KD measurement is the mean of at least two independent experiments.

MBP = MBP (Escherichia coli, UniProt P0AEX9); assay: Fluorescence anisotropy, MBP negative control; type: binding
Method: as §1

MBP-SNX17V380D = target: T2, MBP-SNX17V380D (Homo sapiens, UniProt Q15036, V380D); assay: Fluorescence anisotropy binding of 5-FAM peptides to MBP-SNX17 V380D
T2 construct: M protein marker, R Retriever complex, FL full-length; His (N, cleaved yes); made in house; host or cells: Escherichia coli BL21(DE3)
T2 sequence (Q15036 1-470 V380D): T1 sequence (Q15036 1-470 H457A) with V380D, A457H
Method: as §1

MBP-SNX17 WT = target: T3, MBP-SNX17 WT (Homo sapiens, UniProt Q15036); assay: Fluorescence anisotropy binding of 5-FAM peptides to MBP-SNX17 wild-type
T3 construct: M protein marker, R Retriever complex, FL full-length; His (N, cleaved yes); made in house; host or cells: Escherichia coli BL21(DE3)
T3 sequence (Q15036 1-470): T1 sequence (Q15036 1-470 H457A) with A457H
Method: as §1

MBP-SNX17 L470G = target: T4, MBP-SNX17 L470G (Homo sapiens, UniProt Q15036, L470G); assay: Fluorescence anisotropy binding of 5-FAM cargo peptides to MBP-SNX17 L470G
T4 construct: M protein marker, R Retriever complex, FL full-length; His (N, cleaved yes); made in house; host or cells: Escherichia coli BL21(DE3)
T4 sequence (Q15036 1-470 L470G): T1 sequence (Q15036 1-470 H457A) with A457H, L470G
Method: as §1, with “The peptides used for binding assays were synthesized with an N-terminal 5-Carboxyfluorescein (FAM) and HPLC purified (≥95%) by GenScript. Lyophilized” for “Lyophilized”

In the case of KLITYDNPAYEGID [L2 14-mer], the Kd (MBP-SNX17H457A) is reported as 1100 ± 300 nM, the Kd (MBP; 0.1 μM 5-FAM peptide, pH 7.5, 300 mM NaCl, 25 °C (Fig. EV3B), read-out: KD MBP (negative control)) is reported as over 32 µM and the Kd (MBP; 5-FAM peptide, replicate Y1, sheet KD-L2-14-mer, unit inferred, read-out: KD MBP) is reported as over 32 µM. The Kd (MBP; 5-FAM peptide, replicate Y2, sheet KD-L2-14-mer, unit inferred, read-out: KD MBP) was over 32 µM, the Kd (MBP; 5-FAM peptide, replicate Y3, sheet KD-L2-14-mer, unit inferred, read-out: KD MBP) was over 32 µM and the Kd (MBP-SNX17V380D; 0.1 μM 5-FAM peptide, pH 7.5, 300 mM NaCl, 25 °C, one-site total binding, Bmax fixed at 240, three biological replicates (Fig. 4E)) was over 32 µM. For the same sequence, the Kd (MBP-SNX17V380D; 5-FAM peptide, replicate Y1, sheet KD-L2-14-mer, unit inferred, read-out: KD MBP-SNX17V380D) was over 32 µM, the Kd (MBP-SNX17V380D; 5-FAM peptide, replicate Y2, sheet KD-L2-14-mer, unit inferred, read-out: KD MBP-SNX17V380D) was over 32 µM and the Kd (MBP-SNX17V380D; 5-FAM peptide, replicate Y3, sheet KD-L2-14-mer, unit inferred, read-out: KD MBP-SNX17V380D) was over 32 µM. The Kd (MBP-SNX17 WT) was 1100 ± 100 nM and the Kd (MBP-SNX17 L470G) was 1100 ± 600 nM.
